Reference: article PMC11855827, “High-Throughput Screening of Five Compound Libraries for Anthelmintic Activity and Toxicity Leads to the Discovery of Two Flavonoid Compounds” (International Journal of Molecular Sciences, 2025)
Like-named read-outs stand apart in the source and are kept apart here.

Test system: C. elegans
Assay: microbe, parasite or virus in culture
Conditions: Caenorhabditis elegans
[1] = 0 h, read-out: Percentage of motility inhibition 0 h, Table S2, C. elegans SS assay, 110 μM, 0 h, averages of 4 data points
[2] = 24 h, read-out: Percentage of motility inhibition 24 h, Table S2, C. elegans SS assay, 110 μM, 24 h, averages of 4 data points

Row | Structure (SMILES) | inhibition at 110 µM [1] [%] | inhibition at 110 µM [2] [%] | inhibition at 110 µM (0 h, read-out: Percentage of motility inhibition 0 h) [%] | inhibition at 110 µM (24 h, read-out: Percentage of motility inhibition 24 h) [%]
1 | Oc1ccc(Cl)c2cccnc12 [Cloxiquine] | 40 | 19 | – | –
2 | CN1CCc2cc3c(cc2[C@H]1[C@@H]1OC(=O)c2c1ccc1c2OCO1)OCO3 [Bicuculline] | 0 | 8 | – | –
3 | COc1ccc2c(c1OC)CC1c3c(cc4c(c3-2)OCO4)CCN1C (stereo not shown) [Crebanine] | 0 | 4 | – | –
4 | Oc1cc(O)c2c(c1)O[C@@H](c1ccc(O)c(O)c1)[C@H](O)C2 [(‐)‐Catechin] | 8 | 9 | – | –
5 | O=C(CCCCc1ccc2c(c1)OCO2)N1CCCCC1 [Tetrahydropiperine] | 0 | 0 | – | –
6 | O=C(/C=C/c1ccc(O)cc1)c1ccccc1 [4‐Hydroxychalcone] | 0 | 1 | – | –
7 | CCCCC(O)(Cn1cncn1)c1ccc(Cl)cc1Cl (stereo not shown) [Hexaconazole] | 14 | 22 | – | –
8 | O=C(O)/C=C/c1ccc(O)c(O)c1 [Caffeic acid] | 20 | 13 | – | –
9 | N#C/C(=C1/SC[C@@H](c2ccc(Cl)cc2Cl)S1)n1ccnc1 [Luliconazole] | 3 | 7 | – | –
10 | O=c1cc(-c2ccccc2)oc2ccc(O)cc12 [6‐Hydroxyflavone] | 14 | 2 | – | –
11 | C=C1C(=O)[C@]23[C@H](O)[C@H]1CC[C@H]2[C@@]12CO[C@]3(O)[C@@H](O)[C@@H]1C(C)(C)CC[C@@H]2O [Oridonin] | 0 | 3 | – | –
12 | N[C@@H](Cc1ccc(O)cc1)C(=O)O [L-Tyrosine] | – | – | 34 | 8
13 | O=C1C[C@@H](c2ccc(O)c(O)c2)Oc2cc(O)cc(O)c21 [Eriodictyol] | 0 | 14 | – | –
14 | CC1=C(/C=C/C(C)=C/C=C/C(C)=C/C(=O)O)C(C)(C)CCC1 [Retinoic acid] | 18 | 40 | – | –
15 | C[C@@H]1O[C@@H](O[C@H]2[C@H](Oc3cc(O)c4c(=O)cc(-c5ccc(O)c(O)c5)oc4c3)O[C@H](CO)[C@@H](O)[C@@H]2O)[C@H](O)[C@H](O)[C@H]1O [Lonicerin] | 2 | 2 | – | –
16 | CO[C@H]1/C=C/O[C@@]2(C)Oc3c(C)c(O)c4c(O)c(c5c(nc6cc(C)ccn65)c4c3C2=O)NC(=O)/C(C)=C\C=C\[C@H](C)[C@H](O)[C@@H](C)[C@@H](O)[C@@H](C)[C@H](OC(C)=O)[C@@H]1C [Rifaximin] | 7 | 1 | – | –
17 | COC(=O)C1=CO[C@@H](O[C@@H]2O[C@H](CO)[C@@H](O)[C@H](O)[C@H]2O)[C@@H]2C(CO)=CC[C@H]12 [Geniposide] | 0 | 0 | – | –
18 | O=C(Nc1ccc(Oc2ccc(Cl)cc2)c(Cl)c1)c1cc(I)cc(I)c1O [Rafoxanide] | 8 | 1 | – | –
19 | Cc1cccc(N(C)C(=S)Oc2ccc3ccccc3c2)c1 [Tolnaftate] | 25 | 26 | – | –
20 | CCCCCCCC/C=C\CCCCCCCC(=O)O [Oleic acid] | 0 | 0 | – | –
21 | C[C@@H]1O[C@@H](OC[C@H]2O[C@@H](Oc3c(-c4ccc(O)cc4)oc4cc(O)cc(O)c4c3=O)[C@H](O[C@@H]3O[C@H](CO)[C@H](O)[C@H](O)[C@H]3O)[C@@H](O)[C@@H]2O)[C@H](O)[C@H](O)[C@H]1O [Camelliaside A] | 9 | 10 | – | –
22 | O=C(OCc1ccccc1)c1ccccc1 [Benzyl benzoate] | 35 | 36 | – | –
23 | C[C@]1(OC(=O)/C=C/c2ccccc2)C[C@@H](O)[C@]2(O)C=CO[C@@H](O[C@@H]3O[C@H](CO)[C@@H](O)[C@H](O)[C@H]3O)[C@@H]21 [Harpagoside] | 9 | 30 | – | –
24 | C=C1C[C@@]23CC[C@H]4[C@@](C)(CCC[C@@]4(C)C(=O)O[C@@H]4O[C@H](CO)[C@@H](O)[C@H](O)[C@H]4O)[C@@H]2CC[C@]1(O[C@@H]1O[C@H](CO)[C@@H](O)[C@H](O)[C@H]1O)C3 [Rubusoside] | 0 | 18 | – | –
25 | CC1(C)CC[C@]2(C(=O)O)CC[C@]3(C)C(=CC[C@@H]4[C@@]5(C)C[C@@H](O)[C@H](O)[C@@](C)(CO)[C@@H]5CC[C@]43C)[C@@H]2[C@@H]1O [Arjungenin] | 0 | 36 | – | –
26 | COc1ccc(O)cc1 [Mequinol] | 16 | 11 | – | –
